# Tested on: not listed separately
# Assay: compound toxicity, resazurin reduction assay in uninfected Huh-7.5
# Format: cell-based
# Details: human, uninfected Huh-7.5 cells, Huh-7.5 without viral infection, 10-pt DRC
# Experimental: The hits identified from the primary screening were also tested at 10 µM against CHIKV-118-GFP infection in HuH-7 cells and evaluated by resazurin reduction assay (RRA). Resazurin (7-Hydroxy-3H-phenoxazin-3-one 10-oxide) is reduced to the red fluorescent resorufin by redox enzymes produced by viable cells, and is a good indication of metabolic capacity, and by extension cell viability. The amount of converted resorufin was measured as relative fluorescence readout (RFU) at excitation/emission of 531/572 nm using a fluorescence spectrophotometer (Victor^3 V Spectrophotometer, Perkin Elmer, USA). Briefly, cells were inoculated with CHIKV-118-GFP at an M.O.I. of 0.5 and seeded in 384-well plates containing reference and primary hit compounds and incubated under humidified conditions for 72 hrs at 37°C. Resazurin solution was added to a final concentration of 10 µM and further incubated for another 12 hrs prior to measurement of RFU. The percent activity of the compounds, reflected by the percent cell viability, was quantified by normalizing against the RFUs of MOCK-infected cells and CHIKV-118-GFP-infected cells. Compounds resulting in normalized RFU ≥70% were considered as positive hits for anti-CHIKV activity.
# To confirm the compound activity against dengue viruses, the selected hits from the primary screening were tested in a 10-pt. DRC (2-fold serial dilution from 50 µM) using the same assay described for the dengue HT/HCA. Each concentration of the hit compounds was tested in duplicate wells. Data generated from image analysis of the 10-pt. DRC was plotted and analyzed using the non-linear regression formula: log (inhibitor) vs. response – […] (4 parameters) in GraphPad Prism 5.04. […] Compound toxicity was determined by testing the hit compounds in a 10-pt. DRC against Huh-7.5 in the absence of viral infection and measuring the cell viability using resazurin reduction assay as described above. […] Confirmed hits were selected based on their Selectivity Index (SI), a dimensionless value that indicates the magnitude between cytotoxic concentration and effective concentration, and is calculated as: SI = CC50/EC50.
row,Structure (SMILES),CC50 at 72 h
1,COc1cccc(Nc2nc(C(N)CC(C)C)cs2)n1 (centres unmarked) [CND1057],23 µM
2,CCCc1cnc(Nc2nc(C(N)Cc3ccccc3)cs2)nc1 (centres unmarked) [CND0975],44 µM
3,NC(Cc1ccc(C(F)(F)F)cc1)c1csc(Nc2ncccn2)n1 (centres unmarked) [CND1081],> 100 µM
4,NC(Cc1ccccc1)c1csc(Nc2ccccn2)n1 (centres unmarked) [CND1043],43 µM
5,NC(Cc1ccc(Cl)cc1)c1csc(Nc2ccc(S(N)(=O)=O)cc2)n1 (centres unmarked) [CND0968],29 µM
6,COc1ccc(CC(N)c2csc(Nc3nccc(NCc4ccco4)n3)n2)cc1 (centres unmarked) [CND1020],25 µM
7,NC(Cc1ccc(C(F)(F)F)cc1)c1csc(Nc2nccc(NCCCO)n2)n1 (centres unmarked) [CND1172],15 µM
8,CS(=O)(=O)c1cnc(Nc2nc(C(N)Cc3ccc(Cl)cc3)cs2)nc1 (centres unmarked) [CND1244],21 µM

# Tested on: DENV1 (Den1 BR/90) infection in Huh-7.5
# Assay: image-based dengue HT/HCA, 10-pt dose-response hit confirmation, DENV1
# Format: cell-based
# Details: Dengue virus, DENV1, Huh7.5; Huh-7.5, M.O.I. 0.5, 96 hrs; read-out: EC50 DENV1
# Experimental: (§1) An immunofluorescence assay (IFA) used to detect dengue infection was optimized for the dengue HT/HCA. Briefly, cells were fixed with 4% (w/v) paraformaldehyde (PFA) for 20 min at room temperature (Rm T). PFA-fixed cells were treated with 0.25% (v/v) Triton-X for 20 min at Rm T. DENV-infected cells were detected by probing with 4G2 mAb prepared in blocking buffer: DPBS containing 5% FBS for 30 min at 37°C, followed by AlexaFluor-conjugated goat anti-mouse IgG (H+L) (Invitrogen Molecular Probes, USA) prepared in blocking buffer for 30 min at 37°C. Cell nuclei counterstained with 5 µg/mL 4′,6-diamidino-2-phenylindole (DAPI, Sigma-Aldrich, USA). Two washing cycles of DPBS was done after each step of the IFA. After the final washing, digital images were acquired using a high-throughput confocal fluorescence imaging system (Evotec Technologies High-Throughput Cell Analyzer Opera, Perkin Elmer, USA). The digital images were taken from 3 different fields of each well at 20× magnification.
# (§2) Acquired images were analyzed using our in-house developed image-mining platform (IM). This platform is designed to do high-content screening and directly access the database of images that were sequentially analyzed with specially designed algorithms developed as a customized plug-in to the IM platform. The results of all the analyses were stored in a centralized database. […] One channel (DAPI-channel) captures the signal emitted by DAPI-stained nuclei at 450 nm, while the other channel (A488-channel) captures the signal emitted by the AlexaFluor 488 dye bound to the dengue E protein-antibody complexes confined in the cytoplasm of dengue-infected cells at 540 nm. To define the percentage of dengue-infected cells and, conversely the non-infected cells, a modified watershed method was applied. Compared to the original watershed algorithm that uses the morphological gradient image, a weighted gradient image is used for the topographic surface, whose weights are defined as the ridge values computed from the eigen values of the original image. The percentage of non-infected cells, which is also defined as the percent inhibition or percent activity, is derived by using the formula: [1−(A488-positive cells/total cells)]×100%.
# (§3) The BioFocus kinase inhibitor library were screened against DENV1, DEN2, DENV3 and DENV4 at 10 µM in 0.5% (v/v) DMSO. MOCK-infected Huh-7.5 and IFN-α2A (500 U/mL) were used as positive controls, and the 0.5% DMSO vehicle was used as negative control. Four sets of 15 384-well plates (13 plates designated for test compounds and 2 plates designated for DMSO vehicle control) were used for the primary screening of the BioFocus kinase inhibitor library against each dengue serotype. Each of the 4,000 compounds in the library was tested in single wells. For data normalization and quality control of the screening, each test compound plate contained 16 replicates of the positive and negative controls. After dispensing the test compounds IFN-α2A and DMSO vehicle in the 384-well plates, Huh-7.5 was mixed with DENV1, DENV2, DENV3, or DENV4 to achieve a M.O.I. of 0.5 and dispensed at 5×10^3 cells/well using the Thermo Scientific WellMate automated liquid dispenser. For the MOCK-infected Huh-7.5, the cells were mixed with VM and dispensed under the same conditions as previously stated. Virus infection in the presence of the compounds proceeded at 37°C, 5% CO2 for 96 hrs. Compound activity based on percent inhibition and cell toxicity was assessed by IFA and IM analysis as described above. Scatter-plot distribution of the entire screening was generated using TIBCO Spotfire 4.5.0 (TIBCO Software Inc., Somerville, MA).
# (§4) The calculated activity was normalized to a percent inhibition (PI) based on the MOCK-infected cells (100% activity, or zero infection) and dengue-infected cells (0% activity, or maximum measured infection percentage) controls according to the formula: [drawing 1] where: PImeasured - percent inhibition of test compound […]
row,Structure (SMILES),EC50
1,COc1cccc(Nc2nc(C(N)CC(C)C)cs2)n1 (centres unmarked) [CND1057],3.3 µM
2,CCCc1cnc(Nc2nc(C(N)Cc3ccccc3)cs2)nc1 (centres unmarked) [CND0975],1 µM
3,NC(Cc1ccc(C(F)(F)F)cc1)c1csc(Nc2ncccn2)n1 (centres unmarked) [CND1081],1.5 µM
4,NC(Cc1ccc(Cl)cc1)c1csc(Nc2ccc(S(N)(=O)=O)cc2)n1 (centres unmarked) [CND0968],> 25 µM
5,COc1ccc(CC(N)c2csc(Nc3nccc(NCc4ccco4)n3)n2)cc1 (centres unmarked) [CND1020],3.9 µM
6,NC(Cc1ccc(C(F)(F)F)cc1)c1csc(Nc2nccc(NCCCO)n2)n1 (centres unmarked) [CND1172],7.3 µM
7,CS(=O)(=O)c1cnc(Nc2nc(C(N)Cc3ccc(Cl)cc3)cs2)nc1 (centres unmarked) [CND1244],1.7 µM

# Same assay, conditions: Dengue virus, Huh7.5, 96 h, read-out: EC50 DENV1
row,Structure (SMILES),EC50
1,NC(Cc1ccccc1)c1csc(Nc2ccccn2)n1 (centres unmarked) [CND1043],4.1 µM

# Tested on: DENV4 (DEN4 TVP-360) infection in Huh-7.5
# Assay: image-based dengue HT/HCA, 10-pt dose-response hit confirmation, DENV4
# Format: cell-based
# Details: Dengue virus, DENV4, Huh7.5, 96 h, read-out: EC50 DENV4
# Experimental: as §1, §2, §3, §4
row,Structure (SMILES),EC50
1,COc1ccc(CC(N)c2csc(Nc3nccc(NCc4ccco4)n3)n2)cc1 (centres unmarked) [CND1020],19 µM

# Same assay, conditions: Dengue virus, DENV4, Huh7.5; Huh-7.5, M.O.I. 0.5, 96 hrs; read-out: EC50 DENV4
row,Structure (SMILES),EC50
1,COc1cccc(Nc2nc(C(N)CC(C)C)cs2)n1 (centres unmarked) [CND1057],10 µM
2,CCCc1cnc(Nc2nc(C(N)Cc3ccccc3)cs2)nc1 (centres unmarked) [CND0975],> 50 µM
3,NC(Cc1ccc(C(F)(F)F)cc1)c1csc(Nc2ncccn2)n1 (centres unmarked) [CND1081],12 µM
4,NC(Cc1ccccc1)c1csc(Nc2ccccn2)n1 (centres unmarked) [CND1043],6.9 µM
5,NC(Cc1ccc(Cl)cc1)c1csc(Nc2ccc(S(N)(=O)=O)cc2)n1 (centres unmarked) [CND0968],1.1 µM
6,NC(Cc1ccc(C(F)(F)F)cc1)c1csc(Nc2nccc(NCCCO)n2)n1 (centres unmarked) [CND1172],7.5 µM
7,CS(=O)(=O)c1cnc(Nc2nc(C(N)Cc3ccc(Cl)cc3)cs2)nc1 (centres unmarked) [CND1244],4.4 µM

# Tested on: DENV2 (BR DEN2 01-01) infection in Huh-7.5
# Assay: image-based dengue HT/HCA, 10-pt dose-response hit confirmation, DENV2
# Format: cell-based
# Details: Dengue virus, DENV2, Huh7.5, 96 h, read-out: EC50 DENV2
# Experimental: as §1, §2, §3, §4
row,Structure (SMILES),EC50
1,COc1ccc(CC(N)c2csc(Nc3nccc(NCc4ccco4)n3)n2)cc1 (centres unmarked) [CND1020],13 µM

# Same assay, conditions: Dengue virus, DENV2, Huh7.5; Huh-7.5, M.O.I. 0.5, 96 hrs; read-out: EC50 DENV2
row,Structure (SMILES),EC50
1,COc1cccc(Nc2nc(C(N)CC(C)C)cs2)n1 (centres unmarked) [CND1057],1 µM
2,CCCc1cnc(Nc2nc(C(N)Cc3ccccc3)cs2)nc1 (centres unmarked) [CND0975],5.5 µM
3,NC(Cc1ccc(C(F)(F)F)cc1)c1csc(Nc2ncccn2)n1 (centres unmarked) [CND1081],2.1 µM
4,NC(Cc1ccccc1)c1csc(Nc2ccccn2)n1 (centres unmarked) [CND1043],3.1 µM
5,NC(Cc1ccc(Cl)cc1)c1csc(Nc2ccc(S(N)(=O)=O)cc2)n1 (centres unmarked) [CND0968],6.4 µM
6,NC(Cc1ccc(C(F)(F)F)cc1)c1csc(Nc2nccc(NCCCO)n2)n1 (centres unmarked) [CND1172],10.4 µM
7,CS(=O)(=O)c1cnc(Nc2nc(C(N)Cc3ccc(Cl)cc3)cs2)nc1 (centres unmarked) [CND1244],2.9 µM

# Tested on: BR DEN2 01-01 infection of Huh-7.5
# Assay: assay validation with reference compounds, 10-pt DRC of percent infection
# Format: cell-based, Dengue virus
# Details: Dengue virus, DENV2, Huh7.5
# Experimental: as §1, §2
# In both validation experiments, Huh-7.5 was mixed with DENV1, DENV2, DENV3 or DENV4 at a M.O.I. of 0.5 or VM only for MOCK-infection and dispensed in designated wells using the Thermo Scientific WellMate automated liquid dispenser. For the first validation experiment, the statistical reliability of the dengue HT/HCA was determined by calculating the Z'-factor for the percent infection or percent inhibition. Briefly, the Z'-factor of a defined parameter is calculated using the formula: 1−[(3σp+3σn)/(|μp−μn|)], where the μp, μn, σp and σn are the means (μ) and standard deviations (σ) of the positive (p) and negative (n) controls. For the second validation experiment, the reference compounds were prepared in 2-fold serial dilutions and dispensed in duplicate wells in the 384-well plate, followed by the Huh-7.5 and DENV mixture (M.O.I. 0.5). Percent infection, percent inhibition, and percent cell number were determined using the customized IM platform plug-in. Scatter-plot distribution was generated using TIBCO Spotfire 4.5.0 (TIBCO Software Inc., Somerville, MA). The ten-point dose-response curves (10-pt DRCs) were plotted using the non-linear regression formula: log (inhibitor) vs. response – variable slope (4 parameters), available in GraphPad Prism 5.04 (GraphPad Software Inc., San Diego, CA). The top and bottom values of the reference compounds were unconstrained when the curve fittings of the 10-pt. DRCs were generated.
row,Structure (SMILES),IC50
1,CCN(CC)CCCC(C)Nc1ccnc2cc(Cl)ccc12 (centres unmarked) [Chloroquine],17.4 µM

# Tested on: DENV3 (BR DEN3 290-02) infection in Huh-7.5
# Assay: image-based dengue HT/HCA, 10-pt dose-response hit confirmation, DENV3
# Format: cell-based
# Details: Dengue virus, DENV3, Huh7.5, 96 h, read-out: EC50 DENV3
# Experimental: as §1, §2, §3, §4
row,Structure (SMILES),EC50
1,COc1ccc(CC(N)c2csc(Nc3nccc(NCc4ccco4)n3)n2)cc1 (centres unmarked) [CND1020],3.4 µM

# Same assay, conditions: Dengue virus, DENV3, Huh7.5; Huh-7.5, M.O.I. 0.5, 96 hrs; read-out: EC50 DENV3
row,Structure (SMILES),EC50
1,COc1cccc(Nc2nc(C(N)CC(C)C)cs2)n1 (centres unmarked) [CND1057],2.9 µM
2,CCCc1cnc(Nc2nc(C(N)Cc3ccccc3)cs2)nc1 (centres unmarked) [CND0975],> 50 µM
3,NC(Cc1ccc(C(F)(F)F)cc1)c1csc(Nc2ncccn2)n1 (centres unmarked) [CND1081],3.1 µM
4,NC(Cc1ccccc1)c1csc(Nc2ccccn2)n1 (centres unmarked) [CND1043],5.7 µM
5,NC(Cc1ccc(Cl)cc1)c1csc(Nc2ccc(S(N)(=O)=O)cc2)n1 (centres unmarked) [CND0968],6.2 µM
6,NC(Cc1ccc(C(F)(F)F)cc1)c1csc(Nc2nccc(NCCCO)n2)n1 (centres unmarked) [CND1172],4.8 µM
7,CS(=O)(=O)c1cnc(Nc2nc(C(N)Cc3ccc(Cl)cc3)cs2)nc1 (centres unmarked) [CND1244],1.6 µM

# Reference: paper PMC3578765 (PLoS Neglected Tropical Diseases, 2013)
